The values that follow come from patent US7417072B2, “Blockade of Pin1 prevents cytokine production by activated immune cells” (Wisconsin Alumni Research Foundation, priority 2005, dated 2008).

Residues, ends and D or L forms follow the SMILES beside them. *: point of attachment. Cbz = O=C(OCc1ccccc1)*

One series concerns eosinophils (Eos). Nature of the series: Eosinophil survival, cell viability at day 4. The series is classed as cell-based, human. As to conditions: for Eos survival: HA-activated Eos.
The subject of the next series is GM-CSF mRNA. Nature of the series: GM-CSF mRNA levels in eosinophils, RT-PCR/Southern blot. Format: cell-based, human.
In the next series the test system is Pin1 and AUF1. Nature of the series: Pin1 and AUF1 protein levels in eosinophils, immunoprecipitation/immunoblot. The series is classed as cell-based, human. To be noted: MG132 4 h, juglone 10 min before harvest. Background: A western blot detects proteins with antibodies after separation by electrophoresis.
For series [1], the system named is peripheral blood mononuclear cells (PBMC). Put plainly: Cytokine mRNA accumulation in activated PBMC, northern blot / qPCR. The series is classed as cell-based, human. To be noted: mitogen stimulated, 4 h, juglone 1 μM. In general terms: In qPCR the cycle at which signal appears reflects the starting amount.
Description: PBMCs were isolated from healthy donors by Percoll® gradient centrifugation of heparinized whole blood. Cells were cultured in RPMI 1640 media supplemented with 10% fetal calf serum (FCS) at 1×10^6 cells/ml prior to the addition of PMA (20 ng/ml) and PHA (5 ug/ml) (P/P) or PMA, PHA and juglone (1 uM) (P/P/J); “R” designates the control lane without addition of additional substances. After 4 h, cells were lysed and 10 ug of recovered RNA northern blotted and hybridized with probes shown along the left side of the Figure. “A” and “B” refer to results with 2 different donors.
After 4 h, RNA was isolated from the cells and used for quantitative PCR (qPCR) for the cytokine mRNAs shown. Data are presented as % inhibition in samples with juglone.
Thus peripheral blood mononuclear cells (˜70% T cells, 20% B cells, 5-10% macrophages/monocytes, obtained by phlebotomy of normal donors) were incubated with optimal concentrations of mitogens (phorbol ester (20 ng/ml), and PHA (40 ug/ml), both from Sigma) and cytokine in RNA levels were measured by northern blot or real time RT/PCR (qPCR) and cytokine secretion by ELISA. […] IL-2, IL-8, TNFα, IFNγ and GM-CSF mRNAs were evaluated first, since these cytokines all share 3′ UTR AU-rich elements with GM-CSF.
For the next series, the system named is purified T cells. Put plainly: Cytokine mRNA in purified T cells activated with anti-CD3/anti-CD28, qPCR. Format: cell-based, human. As to conditions: anti-CD3/anti-CD28, juglone 1 μM added along with antibody, 4 hours. The procedure:
Purified T cells were prepared by negative selection of PBMC (T cells>98% pure based on flow cytometry) and activated with a combination of anti-CD3 and anti-CD28 antibodies. Juglone was added at 0.1 or 1 μM as shown along with the antibodies or at various times (as shown) at 1 μM after the antibodies.
Purified T cells were prepared by negative selection of PBMC (T cells>98% pure based on flow cytometry) and activated with a combination of anti-CD3 and anti-CD28 antibodies. Juglone was added at 0.1 or 1 μM as shown along with the antibodies. After 4 hours total incubation time, cells were lysed and mRNA used for RT-qPCR for the cytokine mRNAs shown “−” refers to control cells activated but not exposed to juglone.
As PBMC are heterogeneous, this cell population was fractionated into T cells by negative selection (as described in Sedgwick et al., 2003, Am J Respir Cell Mol Biol. 29:702-9). […] These were then activated with anti-CD3 and anti-CD28 antibodies (obtained from Santa Cruz Biotech), and the effects of Pin1 blockade on cytokine gene expression assessed by qPCR. […] Juglone (1 μM) added along with antibody reduced GM-CSF mRNA by between 80-95%.

The subject of series [2] is rat splenocytes. Put plainly: IFN-γ and IL-2 secretion by activated splenocytes, ELISA. The series is classed as cell-based. As to conditions: I/P stimulated spleen cells. (In general: In an ELISA, binding on a coated surface is turned into a signal by an enzyme label.)
Series [3] relates to rat splenocytes. Put plainly: Splenocyte viability, propidium iodide flow cytometry. Format: cell-based. As to conditions: 24 hours. The procedure:
In FIG. 14A, mRNAs for IFN-γ, IL-2, TNF-α, CXCL-10 and TGF-β were analyzed in rat splenocytes by reverse transcription, qPCR. The ionomycin/PMA stimulated sample was normalized to 100 and others expressed as a % of that value. […] Cells were stained with propidium iodide and analyzed by flow cytometry. The results shown are representative of 3 experiments. […] The data are averages±SEM of 3 independent experiments using splenocytes of untreated healthy animals.
Therefore, Pin1 blockade suppressed proliferation as well as the elaboration of proinflammatory cytokines by activated rat splenocytes.

Series [4] has as its system cytokine expression and immune cells of transplant recipients. Nature of the series: Immunologic analysis of lung transplant recipients (blood, spleen, BAL, lung, mediastinal lymph nodes).
Description: Splenocytes (2000) from control or juglone-treated transplant recipients were activated with ionomycin (1 μM) and PMA (20 ng/ml) for 3 days prior to addition of anti-IL-2 or IFN gamma antibodies and color development and counting.
Spleens were processed 8 days after transplantation from untreated or juglone-treated rats for mRNA isolation and RT-qPCR for IL-2, IFN or TNF alpha. Juglone treated mRNA levels were set to 100% in these analyses.
Data are shown as the average±SEM (n=4 rats) of 3 experiments 7 days after transplantation.
The values in untreated controls were normalized to 100% and data shown represent % change in juglone treated samples. The data shown are an average±SEM (n=4 rats) of 4 experiments. * denotes p<0.05 from control samples. […] Values are normalized to control (100%).
Cytokine elaboration was measured by control, activated or juglone treated activated splenocytes as follows. IFNγ secretion by splenocytes was evaluated by ELISPOT (R&D Systems, Minneapolis, Minn.) as described by the manufacturer. Triplicates of serial dilutions of cells were cultured with PMA (10 ng/ml) plus iononycin (1 μM) for 48 hours. The concentration of IFN-γ and IL-2 in the BAL fluid was determined using an ELISA kit (R&D Systems).
Next, immunologic changes between control and juglone treated transplant recipients were analyzed. […] Splenocytes harvested from control versus untreated animals (8 days after transplant) were stimulated with optimal concentrations of PMA (20 ng/ml) and ionomycin (1 μM) and analyzed by Elispot for IL-2 and IFNγ expression.
Levels of IFN-γ and IL-2 were as measured, as described above, in the animals one week after transplantation.
Cytokine mRNAs from splenocytes in juglone treated animals were also examined.
For the next series, the system named is p45 and p40 AUF1. Nature of the series: Anti-phosphoserine immunoblot of eosinophil cytoplasmic extracts. The series is classed as cell-based, human. As to conditions: 50 μM added 30 min before harvest. The procedure:
Cells were untreated (−/−/−), treated with HA alone (4 h), HA (4 h) plus juglone (1 μM added 10 min before harvest) or HA plus Erk inhibitor PD98059 (PD) (50 μM added 30 min before harvest). Cytoplasmic extracts were immunoblotted with anti-phosphoserine, anti-AUF1 or anti-Pin1 antibody as shown.
As the association of Pin1 and AUF1 was unaffected by HA (FIG. 2A) despite the loss of GM-CSF mRNA from the protein complex (FIGS. 4A & 4B) it was hypothesized that either AUF1 and/or Pin1 was modified by HA mediated signaling. Phorbol esters trigger the dephosphorylation of Ser^83 and Ser^87 of p40 AUF1 was concomitant with the stabilization of IL-1β and TNF-α mRNAs (Wilson et al. 2003, J. Biol. Chem. 278:33029-33038). Therefore, cytoplasmic extracts from control or HA-treated Eos were immunoblotted with anti-phosphoserine, anti-AUF1 or anti-Pin1 antibodies.

Description for GM-CSF mRNA: In FIG. 2A, Eos were treated as in FIG. 1A for 4 h prior to lysis with TriReagent and RT-PCR/Southern blot analysis for GM-CSF mRNA. Gel electrophoresis of GM-CSF products and control β-actin RT-PCR products are shown. In FIG. 2B, cells were treated with HA for 4 h and then juglone (1 μM) was added at the indicated times before harvest and RT-PCR analysis, where GM-CSF or β-actin mRNA expression were analyzed as above. In FIG. 2B, “C,” refers to PCR reaction mixtures without added cDNA. In FIG. 2C, cells were untreated (−/− lanes on left) or incubated for 4 h with HA atone, HA plus varying concentrations (160 or 320 nM) of TAT-conjugated green fluorescent protein (TAT-GFP) or TAT-conjugated Pin1 domains (TAT-wwPin1) and analyzed as in FIG. 2A. […] In FIG. 2E, eosinophils were treated for 4 h with HA or HA plus juglone (1 μM, 1 h prior to harvest) prior to the addition of actinomycin D (5 μg/ml) and cells harvested at the indicated times for RT-PCR/Southern blot analysis. In these experiments, PCR was performed for 30 (HA-treated cells) or 33 (HA plus juglone-treated cells) cycles, respectively.
In FIG. 3A, Eos were untreated (−/−), treated with HA or HA plus juglone (1 μM) for 4 h. […] In FIG. 3C, cells were untreated (−/−/−) treated for 4 h with HA alone, HA plus juglone (10 min before harvest) or HA plus 20 μM or 100 μM MG132 (4 h) plus juglone (10 min before harvest), Cell lysates were immunoblotted with the antibodies shown. […] In FIG. 3D, Eos were treated as described for FIG. 3C except that only 20 μM MG132 was used. Cells were lysed with TriReagent for total RNA isolation prior to RT-PCR/Southern blot analysis.
To characterize the mechanisms connecting hyaluronic acid (HA) activation to GM-CSF expression and eosinophil survival, GM-CSF mRNA decay was measured.
In order to assess this possibility, GM-CSF mRNA levels were measured by RT/PCR-Southern blot hybridization experiments.
Description for Pin1 and AUF1: In FIG. 3A, Eos were untreated (−/−), treated with HA or HA plus juglone (1 μM) for 4 h. Cell lysates were immunoprecipitated with anti-Pin1 antibody followed by immunoblotting with anti-AUF1 or anti-Pin1 antibodies. Nonimmune IgG was used as a negative control while HeLa cell extracts were used as a positive control (“C”). In FIG. 3B, immunoblots of cytoplasmic protein from Eos treated for 4 h with HA or co-treated with juglone (1 μM) for the indicated times before harvest. In FIG. 3C, cells were untreated (−/−/−) treated for 4 h with HA alone, HA plus juglone (10 min before harvest) or HA plus 20 μM or 100 μM MG132 (4 h) plus juglone (10 min before harvest), Cell lysates were immunoblotted with the antibodies shown. Lane “C” is a HeLa cell lysate used as a positive control. In FIG. 3D, Eos were treated as described for FIG. 3C except that only 20 μM MG132 was used.
The effects of HA and juglone treatment on the interactions between AUF1 and Pin1 were then examined.
To address this possibility, Eos were exposed to the proteasome inhibitor MG132 (4 h) (Sigma) and juglone (10 min before harvest) and lysates immunoblotted.
Description for eosinophils (Eos): In FIG. 2C, cells were untreated (−/− lanes on left) or incubated for 4 h with HA atone, HA plus varying concentrations (160 or 320 nM) of TAT-conjugated green fluorescent protein (TAT-GFP) or TAT-conjugated Pin1 domains (TAT-wwPin1) and analyzed as in FIG. 2A. In FIG. 2D, control (−/−), HA (100 μg/ml), rhGM-CSF (100 pg/ml), HA or GM-CSF plus TAT-GFP (160 nM) or HA or GM-CSF plus TAT-wwPin1 (160 nM) treated Eos were cultured for 4 days prior to cell viability assay as disclosed in Example 2 below.
To this end, peripheral blood was obtained by venipuncture from patients who had allergic rhinitis or asthma; patients were not symptomatic at the time blood was obtained. Peripheral blood eosinophils (Eos) were purified using a negative immunomagnetic procedure as described in Esnault and Malter (2001, J. Immunol. 166:4658-96). After isolation, Eos were maintained in vitro in RPMI 1640 medium (Gibco Life Technologies, Grand Island, N.Y.) with 10% fetal calf serum (Gibco Life Technologies, Grand Island, N.Y.) and 50 μg/ml gentamicin (Gibco Life Technologies, Grand Island, N.Y.) at 37° C. in 5% CO2, and were metabolically labeled and activated by treatment under these culture conditions with 100 μg/ml HA (˜5 hours total, see below).
The mechanism of Eos death was evaluated by western blotting.

In the case of `C=CC[C@@H]1/C=C(\C)C[C@H](C)C[C@H](OC)[C@H]2O[C@@](O)(C(=O)C(=O)N3CCCC[C@H]3C(=O)O[C@H](/C(C)=C/[C@@H]3CC[C@@H](O)[C@H](OC)C3)[C@H](C)[C@@H](O)CC1=O)[C@H](C)C[C@@H]2OC` [FK506], the “Effect on HA-enhanced Eos survival” value in the series on eosinophils (Eos) (HA 100 μg/ml, TAT proteins 160 nM) is “no effect”.

With `CC(C)C[C@@H](C=O)NC(=O)[C@H](CC(C)C)NC(=O)[C@H](CC(C)C)NC(=O)OCc1ccccc1` [MG132] (Cbz-Leu-Leu-Leu-aldehyde), the “GM-CSF mRNA in Eos treated with MG132 alone” value in the series on GM-CSF mRNA is on record as “no observable effect”. In the series on GM-CSF mRNA (20 μM MG132 4 h, juglone 10 min before harvest), the “GM-CSF mRNA in Eos treated with HA, MG132 and juglone” value is “antagonized juglone-induced decreases of GM-CSF mRNA”. For the same compound, in the series on Pin1 and AUF1, the “Juglone-induced Pin1 degradation” value is “only partially prevented Pin1 degradation”; the “Juglone-induced p45, p42 and p40 AUF1 degradation” value is on record as “completely blocked”.

In turn, `O=C1C=CC(=O)c2c(O)cccc21` [juglone] registered an Eos survival in the series with eosinophils (Eos) (0.1 μM) of 5%. Further, in the series with eosinophils (Eos) (1.0 μM), the Eos survival worked out at 5%. Also, the “Suppression of cytokine mRNAs by qPCR” value in series [1] was 65-90%. In the series on purified T cells, the “Reduction of GM-CSF mRNA in purified T cells” value is reported as 80-95%. Moreover, in the series with rat splenocytes [2], the “Concentration of maximal effect on cytokine secretion” value turned out to be 1 µM. The “Apoptosis in I/P versus I/P/juglone treated splenocytes” value in the series on rat splenocytes [3] is “equivalent levels of apoptosis”. In addition, in series [4] (8 days after transplant, PMA 20 ng/ml and ionomycin 1 μM), the “Reduction in number of splenocytes expressing IL-2 and IFNγ by Elispot” value is on record as 60-70%. Moreover, the “Absolute counts and ratios of peripheral blood CD4+, CD8+ cells and γ/δ lymphocytes” value in series [4] (after 1 week of juglone) is recorded as “largely unaffected”. For the same compound, in series [4] (juglone 1 mg/kg), the “Fewer total BAL cells than untreated controls” value was determined as 50%; the “IL-2 and IFN-gamma mRNA in lungs compared with no treatment controls” value is “about 35%”.

`COc1cccc(-c2cc(=O)c3ccccc3o2)c1N` [PD98059]: the “GM-CSF mRNA levels in HA-treated Eos” value with GM-CSF mRNA (HA 4 h, CsA 1.6 μM or 16 μM, TAT proteins 160 or 320 nM) is reported as “failed to accumulate”. Also, the “Time to effect on GM-CSF mRNA after addition of the inhibitor” value with GM-CSF mRNA (HA-activated Eos) was in the range of 10 to 30 min. For the same compound, in the series with p45 and p40 AUF1, the “HA-increased phosphorylation of p45 and p40 AUF1” value was “partially antagonized”.
